What was measured:
in vivo = conditions: SD, rat, po, 50 mg/kg
Protocol: (§1) Healthy adult SD rats (n=3 per group) were fasted overnight (free access to water), and then were administrated the drugs by intragastric administration (i.g.) (50 mg/kg). 0.1 mL of blood was collected from the jugular venous plexus of the rats at 15 minutes, 30 minutes, 1 hour, 2 hours, 4 hours, 6 hours, 8 hours, 24 hours after administration. All blood samples were anticoagulated with K2EDTA, then centrifuged at 3500 rpm at 5° C. for 10 minutes to separate plasma, and stored at −20° C. for test. Parent drug concentration in plasma was determined by LC/MS/MS method.

[1] = Pharmacokinetics in rats after intragastric administration; conditions: SD, rat, plasma, po, 50 mg/kg
Protocol: as §1

Compound	AUC(0-inf) (in vivo) [ng·h/mL]	AUC(0-t) (in vivo) [ng·h/mL]	Cmax (in vivo) [ng/mL]	Tmax (in vivo) [h]	half-life (in vivo) [h]	AUC(0-inf) [1] [ng·h/mL]	AUC(0-t) [1] [ng·h/mL]	Cmax [1] [ng/mL]	Tmax [1] [h]	half-life [1] [h]
[2H]C([2H])([2H])C1=C[C@H](c2c(O)cc(CCC)cc2O)C(C(=C)C)CC1 (stereo in doubt) [Example 3, 5′-(methyl-d3)-2′-(prop-1-en-2-yl)-4-propyl-1′,2′,3′,4′-tetrahydro-[1,1′-biphenyl]-2,6-diol]	4480	4230	795	2.1	4.9					
C=C(C)[C@@H]1CCC(C)=C[C@H]1c1c(O)cc(CCCCC)cc1O [CBD, cannabidiol]						4500	4460	784	2	4.8
[2H]C([2H])=C([C@@H]1CCC(C([2H])([2H])[2H])=C[C@H]1c1c(O)cc(CCCCC)cc1O)C([2H])([2H])[2H] [Example 7, (1′R,2′R)-5′-(methyl-d3)-4-pentyl-2′-(prop-1-en-2-yl-d5)-1′,2′,3′,4′-tetrahydro-[1,1′-biphenyl]-2,6-diol]						6290	5830	901	2.2	6.5
[2H]C([2H])([2H])C1=C[C@@H](c2c(O)cc(CCCCCCC)cc2O)[C@H](C(=C)C)CC1 [Example 9, (1′R,2′R)-4-heptyl-5′-(methyl-d3)-2′-(prop-1-en-2-yl)-1′,2′,3′,4′-tetrahydro-[1,1′-biphenyl]-2,6-diol]						6480	6220	823	2	7.9
[2H]C([2H])([2H])C1=C[C@@H](c2c(O)cc(CCCCC)cc2O)[C@H](C(=C)C)CC1([2H])[2H] [Example 13, (1′R,2′R)-5′-(methyl-d3)-4-pentyl-2′-(prop-1-en-2-yl)-1′,2′,3′,4′-tetrahydro-[1,1′-biphenyl]-4′,4′-d2-2,6-diol]						6180	5980	871	2	6
[2H]C([2H])(O)C1=C[C@@H](c2c(O)cc(CCCCC)cc2O)[C@H](C(=C)C)CC1([2H])[2H] [Example 16]						5630	5490	860	1.5	5.8
[2H]C([2H])([2H])C1=C[C@H](c2c(O)cc(CCCCC)c(C(=O)O)c2O)[C@@H](C(=C)C)CC1 [Example 23]						8230	6980	977	1.75	6.5
